“Also recorded” adds a separate entry of the source.
Legend:
Type in all cases: in vivo, rat
[1] = tested on: mesenteric vascular bed of male obese ZSF1 rats; test: Mesenteric vascular reactivity to acetylcholine and sodium nitroprusside after 26 weeks of treatment; details: 10 ug/kg/hour s.c., versus control; for Vasodilation induced by sodium nitroprusside (mesenteric vascular resistance, FIG. 3): sodium nitroprusside 0.5, 1.5, 5.0 ug/min
Excerpt: After 26 weeks of treatment, animals were anesthetized and instrumented for assessment of heart performance, renal hemodynamics and mesenteric vascular reactivity. A PE-50 catheter was advanced via the carotid artery into the left ventricle and connected to a heart-performance analyzer (Micro-Med, Inc., Louisville, Ky.) for continuous measurement of ten time/pressure variables. A PE-50 catheter was inserted into the femoral artery and connected to a blood pressure analyzer (Micro-Med, Inc.) for measurement of arterial blood pressure. A PE-10 catheter was inserted into the left ureter for urine collection, and a flow probe (Transonic Systems, Inc., Ithaca, N.Y.) was placed on the left renal artery for determination of renal blood flow. An infusion of ^14C-inulin (0.035 uCi/20 ul saline/min) was initiated, and after 60 minutes, two 30-minute clearance periods were conducted. A mid-point blood sample (300 ul) for measurement of radioactivity was collected. Plasma and urine ^14C-inulin radioactivity were measured, and renal clearance of ^14C-inulin was calculated. A flow probe was placed on the mesenteric artery for determination of mesenteric blood flow, and a 32-gauge needle was inserted into the mesenteric artery and attached to a Y-connector for dual intramesenteric artery infusions (25 ul/min each). Angiotensin II (30 ng/min) plus methoxamine (3 ug/min) was delivered via one intramesenteric artery infusion line into the mesenteric vascular bed to the mesenteric vascular bed. […] Vascular resistances were calculated as arterial blood pressure divided by blood flow.
All values refer to means±SEM for 9 to 10 animals in each group. Statistical significance was calculated using either an unpaired Student's t-test or a 2-factor analysis of variance (repeated measures) followed by a Fisher's Least Significance Difference test if appropriate. […]

male ZSF1 rats = test: Treatment of male ZSF1 rats for 24 weeks with 2-hydroxyestradiol or 2-methoxyestradiol; details: 10 ug/kg/hr, 28 weeks, versus control animals
male obese ZSF1 rats [2] = test: Heart performance, arterial blood pressure and renal hemodynamics in anesthetized ZSF1 rats after 26 weeks of treatment; details: for Glomerular Filtration Rate / Renal Blood Flow / Renal Vascular Resistance: 26 weeks (approximately 6 months) of treatment; for Glomerular Filtration Rate: 14C-inulin clearance
Excerpt: After 26 weeks of treatment, animals were anesthetized and instrumented for assessment of heart performance, renal hemodynamics and mesenteric vascular reactivity. A PE-50 catheter was advanced via the carotid artery into the left ventricle and connected to a heart-performance analyzer (Micro-Med, Inc., Louisville, Ky.) for continuous measurement of ten time/pressure variables. A PE-50 catheter was inserted into the femoral artery and connected to a blood pressure analyzer (Micro-Med, Inc.) for measurement of arterial blood pressure. A PE-10 catheter was inserted into the left ureter for urine collection, and a flow probe (Transonic Systems, Inc., Ithaca, N.Y.) was placed on the left renal artery for determination of renal blood flow. An infusion of ^14C-inulin (0.035 uCi/20 ul saline/min) was initiated, and after 60 minutes, two 30-minute clearance periods were conducted. A mid-point blood sample (300 ul) for measurement of radioactivity was collected. Plasma and urine ^14C-inulin radioactivity were measured, and renal clearance of ^14C-inulin was calculated. A flow probe was placed on the mesenteric artery for determination of mesenteric blood flow, and a 32-gauge needle was inserted into the mesenteric artery and attached to a Y-connector for dual intramesenteric artery infusions (25 ul/min each). Angiotensin II (30 ng/min) plus methoxamine (3 ug/min) was delivered via one intramesenteric artery infusion line into the mesenteric vascular bed to the mesenteric vascular bed. Next, vascular responses to increasing doses of acetylcholine (0.3, 1.0 and 3.0 ug/min, 5 minutes per dose) and sodium nitroprusside (0.5, 1.5 and 5.0 ug/min, 5 minutes per dose) were elicited by infusing these agents via the other intramesenteric artery infusion line into the mesenteric vascular bed. Vascular resistances were calculated as arterial blood pressure divided by blood flow.
(§1) All values refer to means±SEM for 9 to 10 animals in each group. Statistical significance was calculated using either an unpaired Student's t-test or a 2-factor analysis of variance (repeated measures) followed by a Fisher's Least Significance Difference test if appropriate. The criterion of significance was p<0.05.

male obese ZSF1 rats [3] = test: Treatment of male obese ZSF1 rats for 26 weeks with 2-hydroxyestradiol: body weight, food intake, metabolic cage and plasma parameters
Excerpt: Twenty 12-week-old male obese ZSF1 rats (Genetic Models Inc., Indianapolis, Ind.) were used. Obese ZSF1 rats were developed by crossing lean female Zucker Diabetic Fatty rats (ZDF +/fa) and lean male Spontaneously Hypertensive Heart Failure rats (SHHF/Mcc-fa^cp, +/cp). As recently described by Tofovic, S. P., et al., Renal Failure 22: 387 (2000) the disclosure of which is incorporated herein by reference, compared with several different rat strains including Wistar-Kyoto normotensive rats, spontaneously hypertensive rats and obese SHHF/Mcc-fa^cp rats, obese ZSF1 rats have the metabolic syndrome (i.e., hypertension, diabetes and hyperlipidemia), left ventricular dysfunction, and develop nephropathy as characterized by massive proteinuria, abnormal renal histopathology (glomerulosclerosis and severe tubulointerstitial and vascular changes) and reduced glomerular filtration rate. Thus, this rat strain develops obesity, the metabolic syndrome and the end-organ sequelae associated with the metabolic syndrome.
At baseline, animals were placed in metabolic cages and food intake, water intake, urine output and urinary excretion of proteins (bicinchoninic acid method) and glucose (Infinity™ Glucose Reagent, Sigma Diagnostics, St Louis, Mo.) were determined. Next, osmotic mini pumps infusing either vehicle (polyethylene glycol 400, 2.5 ul/hour) or 2-hydroxyestradiol (10 ug/kg/hour) were implanted subcutaneously (random assignment). Minipumps were replaced every 33 days. Metabolic cage studies were repeated 12 and 24 weeks after initiation of treatments. After 9 and 25 weeks of treatment, animals were fasted overnight, and blood samples (tail vein) for measurement of cholesterol were taken. Plasma samples were analyzed in duplicates for cholesterol levels (Sigma Diagnostics, St. Louis, Mo.). After 26 weeks of treatment, animals were fasted overnight, an oral glucose tolerance test was conducted and total glycated hemoglobin levels were determined (Sigma Diagnostics). Plasma glucose levels were measured with the Precision Q.I.D. Blood Glucose Test Strips kit (Medisense, Inc., Bedford, Mass.).
as §1

[4] = anesthetized, listed as 2-Hydroxyestradiol
[5] = Table 2, after approximately 6 months of treatment
[6] = 10 ug/kg/hour s.c., 12 weeks of treatment
[7] = 10 ug/kg/hour s.c., 24 weeks of treatment
[8] = Table 1, after approximately 6 months of treatment

Structure (SMILES): C[C@]12CC[C@@H]3c4cc(O)c(O)cc4CC[C@H]3[C@@H]1CC[C@@H]2O [2-hydroxyestradiol, estra-1,3,5 (10)-triene-2,3,1 7-triol (17β)]
- Decreases in mesenteric vascular resistance induced by acetylcholine (FIG. 2) ([1]; acetylcholine 0.3, 1.0, 3.0 ug/min): greater
- Vasodilation induced by sodium nitroprusside (mesenteric vascular resistance, FIG. 3) [1]: non-significant effect
- Vasodilation induced by sodium nitroprusside (mesenteric vascular resistance, FIG. 3) ([1]; listed as 2-Hydroxyestradiol): only slightly (non-significantly) enhanced
- Glycated hemoglobin (HbA1c) (FIG. 14) (male ZSF1 rats): lower
- Mean arterial blood pressure (male obese ZSF1 rats [2]; 10 ug/kg/hour s.c., 26 weeks of treatment, anesthetized): 122±5 mm Hg
- Effects on heart performance in situ (male obese ZSF1 rats [2]; 10 ug/kg/hour s.c., chronic treatment (26 weeks), versus control): no effects
- Glomerular Filtration Rate (male obese ZSF1 rats [2]): did not affect
- Glomerular Filtration Rate (male obese ZSF1 rats [2]; listed as 2-Hydroxyestradiol): 0.76 ± 0.09 ml/min/gram kidney
- Renal Blood Flow (male obese ZSF1 rats [2]; anesthetized): did not affect
- Renal Vascular Resistance (male obese ZSF1 rats [2]; anesthetized): did not affect
- Renal Blood Flow (male obese ZSF1 rats [2]; [4]): 3.3 ± 0.6 ml/min/gram kidney
- Renal Vascular Resistance (male obese ZSF1 rats [2]; [4]): 42 ± 7 mm Hg/ml/min/gram kidney
- +dP/dtmax (male obese ZSF1 rats [2]; [5]): 11,805 ± 943 mm Hg/sec
- +dP/dtmax/Ventricular Peak Systolic Pressure (male obese ZSF1 rats [2]; [5]): 69.9 ± 2.5 s⁻¹
- Duration of Contraction (male obese ZSF1 rats [2]; [5]): 38.8 ± 3.5 ms
- Duration of Relaxation (male obese ZSF1 rats [2]; [5]): 96.3 ± 6.3 ms
- Half-Time of Ventricular Relaxation (male obese ZSF1 rats [2]; [5]): 49.1 ± 3.6 ms
- Heart Rate (male obese ZSF1 rats [2]; [5]): 352 ± 9 beats/min
- Heart Rate × Ventricular Peak Systolic Pressure (male obese ZSF1 rats [2]; [5]): 60,949 ± 4,237 [beats/min] × mm Hg
- Mean Blood Pressure (male obese ZSF1 rats [2]; [5]): 122 ± 5 mm Hg
- Time Constant of Ventricular Relaxation (male obese ZSF1 rats [2]; [5]): 16.7 ± 1.9 ms
- Ventricular End Diastolic Pressure (male obese ZSF1 rats [2]; [5]): 4.2 ± 1.0 mm Hg
- Ventricular Minimum Diastolic Pressure (male obese ZSF1 rats [2]; [5]): −1.4 ± 1.1 mm Hg
- Ventricular Peak Systolic Pressure (male obese ZSF1 rats [2]; [5]): 172 ± 9 mm Hg
- −dP/dtmax (male obese ZSF1 rats [2]; [5]): 6853 ± 382 mm Hg/sec
- Body weight (male obese ZSF1 rats [3]; 10 ug/kg/hour s.c. osmotic minipump, 12 weeks of treatment, mean±SEM): 545±13 grams
- Body weight (male obese ZSF1 rats [3]; 10 ug/kg/hour s.c. osmotic minipump, 26 weeks of treatment, mean±SEM): 571±13 grams
- Hypercholesterolemia (plasma cholesterol) (male obese ZSF1 rats [3]; 10 ug/kg/hour s.c., 9 weeks of treatment, fasted overnight): 151±9 mg cholesterol/100 ml
- Food intake (male obese ZSF1 rats [3]; [6]): 26.4±1.3 grams/day
- Glucosuria (male obese ZSF1 rats [3]; [6]): 0.2±0.2 grams glucose/day
- Polydipsia (male obese ZSF1 rats [3]; [6]): 40.1±4.0 mls of water consumed/day
- Polyuria (male obese ZSF1 rats [3]; [6]): 23.6±2.4 mls of urine/day
- Food intake (male obese ZSF1 rats [3]; [7]): 36.6±0.9 grams/day
- Glucosuria (male obese ZSF1 rats [3]; [7]): 1.7±0.5 grams glucose/day
- Polydipsia (male obese ZSF1 rats [3]; [7]): 67.4±4.5 mls of water consumed
- Polyuria (male obese ZSF1 rats [3]; [7]): 45.6±3.8 mls of urine/day
- Hypercholesterolemia (plasma cholesterol) (male obese ZSF1 rats [3]; 10 ug/kg/hour s.c., 25 weeks of treatment, fasted overnight): 247±28 mg cholesterol/100 ml
- Glycated hemoglobin (male obese ZSF1 rats [3]; 10 ug/kg/hour s.c., 26 weeks into the study): 3.8±0.7%
- Oral glucose tolerance test: plasma glucose 2 hours after an oral dose of 2 grams of glucose per kg body weight (male obese ZSF1 rats [3]; 10 ug/kg/hour s.c., 26 weeks of treatment, fasted overnight): 265±13 mg/100 ml
- Progression of proteinuria (urinary protein excretion, FIG. 1) (male obese ZSF1 rats [3]; 10 ug/kg/hour s.c., baseline, 12 and 24 weeks, versus vehicle): significant (p<0.001) effect of time and treatment; also recorded: attenuated the progression of proteinuria
- Food intake (male obese ZSF1 rats [3]; [8]): 36.6 ± 0.9 grams
- Glycated hemoglobin (male obese ZSF1 rats [3]; [8]): 3.8 ± 0.7%
- Plasma Cholesterol (male obese ZSF1 rats [3]; [8]): 247 ± 28 mg/100 ml
- Plasma Glucose 2 Hours After Oral Glucose Load of 2 g/kg (male obese ZSF1 rats [3]; [8]): 265 ± 13 mg/100 ml
- Urinary Glucose Excretion (male obese ZSF1 rats [3]; [8]): 1.7 ± 0.5 grams/day
- Urinary Protein Excretion (male obese ZSF1 rats [3]; [8]): 333 ± 21 mg/day
- Urine Volume (male obese ZSF1 rats [3]; [8]): 45.6 ± 3.8 mL/day
- Water Intake (male obese ZSF1 rats [3]; [8]): 67.4 ± 4.5 mL/day
- Body weight (male obese ZSF1 rats [3]; Table 1, after approximately 6 months of treatment, mean ± SEM): 571 ± 11 grams
